Assay results from paper PMC6917776, “Discovery of a chemical probe for PRDM9” (Nature Communications, 2019).
“And” between values parts separate entries of the source, which are not always exact repeats. Equal values may be shown once. Read-outs that look alike come from different tables or passages of the source.

Experiments:
[1] = molecular target: T1, PRDM9 (amino acids: 195–415) (Homo sapiens, UniProt Q9NQV7); test: PRDM9 methyltransferase activity assay (3H-SAM scintillation proximity assay); assay type: biochemical
T1 construct: PRDM9 (amino acids: 195–415)
T1 sequence (Q9NQV7 195-415): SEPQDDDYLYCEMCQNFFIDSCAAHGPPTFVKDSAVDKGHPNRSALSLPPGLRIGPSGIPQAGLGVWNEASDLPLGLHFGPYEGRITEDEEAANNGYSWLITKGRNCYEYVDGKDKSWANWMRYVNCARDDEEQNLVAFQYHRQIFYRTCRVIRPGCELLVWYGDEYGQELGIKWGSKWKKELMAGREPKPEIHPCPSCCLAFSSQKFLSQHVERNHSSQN
Method: Methyltransferase activity assays for PRDM9 (amino acids: 195–415) were performed by monitoring the incorporation of tritium-labeled methyl group from ^3H-SAM to H3 (1–25) peptide using scintillation proximity assay (SPA). The enzymatic reactions were performed at 23 °C with 30 min incubation in 20 mM Tris-HCl (pH 7.5), 5 mM DTT, 0.01% Triton X-100 and 1% DMSO containing 71 μM of SAM (5 μM of ^3H-SAM), 4 μM of biotinylated H3 (1–25) peptide and 5 nM of PRDM9. For PRDM7, reactions were performed at 23 °C with 90 min incubation in 20 mM BTP pH 9.0, 5 mM DTT, 0.01% Triton X-100 and 1% DMSO containing 900 μM of SAM (5 μM of ^3H-SAM), 4 μM of biotinylated H3 (1–25) peptide and 100 nM of enzyme. […] To stop the reactions, 10 μL of 7.5 M guanidine hydrochloride was added to 10 μL of reaction mixture, followed by 60 μL of buffer (20 mM Tris, pH 8.0), mixed, and transferred to a 384-well streptavidin coated Flash-plate. After mixing, the mixtures in Flash-plate were incubated for 2 h, and the CPM counts were measured using TopCount plate reader. All enzymatic reactions were performed in triplicate, and IC50 values were determined by fitting the data to Four Parameter Logistic equation using the GraphPad Prism software.

[2] = test system: 32 protein, DNA and RNA methyltransferases; test: Methyltransferase selectivity assay (whole panel); assay type: biochemical; details: tested at 1 µM and 10 µM of compounds
Method: Selectivity against methyltransferases were determined as described previously. Details of the assays are described in the supplementary methods. […]
were tested at (circle) 1 µM and (triangle) 10 µM of compounds. PRDM9 was the only methyltransferase in this panel of MTs that was inhibited by MRK -740.
Effect of both compounds on PRDM7 is presented in figure 1D in the main text. Each experiment was performed at two concentrations (1 and 10 µM) of compounds and in duplicate (n=2). Source data are provided as a Source Data file .
(1 picture or pasted object on this page, not shown here)
Methyltransferase selectivity assay1
The effect of chemical probes and negative controls on the methyltransferase activities of protein, DNA and RNA methyltransferases was tested by radiometric assays using 3H-SAM. For proteins such as MLL1 trimeric, MLL3 pentameric, EZH1 (PRC2) pentameric, and EZH2 (PRC2) trimeric complexes, as well as G9a, GLP, SUV39H1, SUV39H2, SUV420H1, SUV420H2, SETD2, SETD8, SETDB1, SETD7, PRMT1, PRMT3, PRMT4, PRMT5/ MEP50 complex, PRMT6, PRMT7, PRMT8, PRMT9, PRDM9, SMYD2, SMYD3, DNMT1, and BCDIN3D the incorporation of a tritium-labeled methyl group into biotinylated substrate was monitored using scintillation proximity assay (SPA). […] The counts per minute (CPM) was measured on a TopCount plate reader. […]

## COc1cc(OC)cc(-c2noc(N3CCN(C)C4(CCN(c5ccnc(C)c5)CC4)C3)n2)c1 [MRK-740]
[1]; 0.00305176 µM compound, 0.00305176 µM
  PRDM9-Activity %, single experiments: 94.4267% and 95.25% and 97.1828% and 103.784% and 103.017%
[1]; 0.00305176 µM compound, n=6, read-out: PRDM9-Activity %, Average
  activity at 0.00305176 µM: 97.6%
[1]; 0.00305176 µM compound, read-out: PRDM9-Activity %, single experiments
  activity at 0.00305176 µM: 91.9%
[1]; 0.00610352 µM compound, 0.00610352 µM
  PRDM9-Activity %, single experiments: 85.0663% and 85.348% and 95.7626% and 97.3747% and 91.3487%
[1]; 0.00610352 µM compound, n=6 MRK-740, n=3 MRK-740-NC, read-out: PRDM9-Activity %, Average
  activity at 0.00610352 µM: 90%
[1]; 0.00610352 µM compound, read-out: PRDM9-Activity %, single experiments
  activity at 0.00610352 µM: 84.8%
[1]; 0.012207 µM compound, 0.012207 µM
  PRDM9-Activity %, single experiments: 78.4578% and 80.6028% and 86.1288% and 97.1828% and 87.357%
[1]; 0.012207 µM compound, n=6 MRK-740, n=3 MRK-740-NC, read-out: PRDM9-Activity %, Average
  activity at 0.012207 µM: 84.8%
[1]; 0.012207 µM compound, read-out: PRDM9-Activity %, single experiments
  activity at 0.012207 µM: 79.3%
[1]; 0.0244141 µM compound, 0.0244141 µM
  PRDM9-Activity %, single experiments: 75.966% and 79.6061% and 75.3435% and 72.6952% and 77.5697%
[1]; 0.0244141 µM compound, n=6 MRK-740, n=3 MRK-740-NC, read-out: PRDM9-Activity %, Average
  activity at 0.0244141 µM: 75.8%
[1]; 0.0244141 µM compound, read-out: PRDM9-Activity %, single experiments
  activity at 0.0244141 µM: 73.4%
[1]; 0.0488281 µM compound, 0.0488281 µM
  PRDM9-Activity %, single experiments: 59.9538% and 62.5322% and 63.7138% and 61.8331% and 62.9462%
[1]; 0.0488281 µM compound, n=6 MRK-740, n=3 MRK-740-NC, read-out: PRDM9-Activity %, Average
  activity at 0.0488281 µM: 62.6%
[1]; 0.0488281 µM compound, read-out: PRDM9-Activity %, single experiments
  activity at 0.0488281 µM: 64.9%
[1]; 0.0976562 µM compound, 0.0976562 µM
  PRDM9-Activity %, single experiments: 47.0617% and 46.4983% and 51.163% and 50.5105% and 50.3953%
[1]; 0.0976562 µM compound, n=6 MRK-740, n=3 MRK-740-NC, read-out: PRDM9-Activity %, Average
  activity at 0.0976562 µM: 49%
[1]; 0.0976562 µM compound, read-out: PRDM9-Activity %, single experiments
  activity at 0.0976562 µM: 48.6%
[1]; 0.195312 µM compound, 0.195312 µM
  PRDM9-Activity %, single experiments: 35.2529% and 35.7729% and 39.7252% and 37.4223% and 38.9192%
[1]; 0.195312 µM compound, n=6 MRK-740, n=3 MRK-740-NC, read-out: PRDM9-Activity %, Average
  activity at 0.195312 µM: 36.7%
[1]; 0.195312 µM compound, read-out: PRDM9-Activity %, single experiments
  activity at 0.195312 µM: 33%
[1]; 0.390625 µM compound, 0.390625 µM
  PRDM9-Activity %, single experiments: 22.6425% and 27.2793% and 26.6754% and 26.8289% and 30.4368%
[1]; 0.390625 µM compound, n=6 MRK-740, n=3 MRK-740-NC, read-out: PRDM9-Activity %, Average
  activity at 0.390625 µM: 26.6%
[1]; 0.390625 µM compound, read-out: PRDM9-Activity %, single experiments
  activity at 0.390625 µM: 25.4%
[1]; 0.78125 µM compound, 0.78125 µM
  PRDM9-Activity %, single experiments: 15.1455% and 15.3839% and 20.1505% and 16.3507% and 20.304%
[1]; 0.78125 µM compound, n=6 MRK-740, n=3 MRK-740-NC, read-out: PRDM9-Activity %, Average
  activity at 0.78125 µM: 17.5%
[1]; 0.78125 µM compound, read-out: PRDM9-Activity %, single experiments
  activity at 0.78125 µM: 17.8%
[1]; 1.5625 µM compound, 1.5625 µM
  PRDM9-Activity %, single experiments: 9.274% and 10.0537% and 12.7044% and 15.0841% and 15.1608%
[1]; 1.5625 µM compound, n=6 MRK-740, n=3 MRK-740-NC, read-out: PRDM9-Activity %, Average
  activity at 1.5625 µM: 12%
[1]; 1.5625 µM compound, read-out: PRDM9-Activity %, single experiments
  activity at 1.5625 µM: 9.56%
[1]; 3.125 µM compound, 3.125 µM
  PRDM9-Activity %, single experiments: 7.757% and 8.32% and 10.555% and 9.672% and 9.096%
[1]; 3.125 µM compound, n=6 MRK-740, n=3 MRK-740-NC, read-out: PRDM9-Activity %, Average
  activity at 3.125 µM: 8.8%
[1]; 3.125 µM compound, read-out: PRDM9-Activity %, single experiments
  activity at 3.125 µM: 7.39%
[1]; 6.25 µM compound, 6.25 µM
  PRDM9-Activity %, single experiments: 4.5935% and 6.024% and 7.753% and 9.173% and 6.448%
[1]; 6.25 µM compound, n=6 MRK-740, n=3 MRK-740-NC, read-out: PRDM9-Activity %, Average
  activity at 6.25 µM: 6.57%
[1]; 6.25 µM compound, read-out: PRDM9-Activity %, single experiments
  activity at 6.25 µM: 5.42%
[1]; 12.5 µM compound, 12.5 µM
  PRDM9-Activity %, single experiments: 3.185% and 3.8568% and 5.834% and 4.491% and 4.606%
[1]; 12.5 µM compound, n=6 MRK-740, n=3 MRK-740-NC, read-out: PRDM9-Activity %, Average
  activity at 12.5 µM: 4.37%
[1]; 12.5 µM compound, read-out: PRDM9-Activity %, single experiments
  activity at 12.5 µM: 4.27%
[1]; 25 µM compound, 25 µM
  PRDM9-Activity %, single experiments: 2.7301% and 2.167% and 2.752% and 4.337% and 5.373% and 4.529%
[1]; 25 µM compound, n=6 MRK-740, n=3 MRK-740-NC, read-out: PRDM9-Activity %, Average
  activity at 25 µM: 3.65%
[1]; 50 µM compound, 50 µM
  PRDM9-Activity %, single experiments: 2.405% and 1.7984% and 3.488% and 4.913% and 5.45% and 4.529%
[1]; 50 µM compound, n=6 MRK-740, n=3 MRK-740-NC, read-out: PRDM9-Activity %, Average
  activity at 50 µM: 3.76%
[1]; PRDM9, 1µM compound, Exp1, Exp2, 1 µM
  Activity %: 11%
[1]; PRDM9, 1µM compound, Exp1, Exp2, read-out: Activity %
  activity at 1 µM: 10%
[1]; PRDM9, 10µM compound, Exp1, Exp2, 10 µM
  Activity %: 2.5%
[1]; PRDM9, 10µM compound, Exp1, Exp2, read-out: Activity %
  activity at 10 µM: 3%
[1]; biotinylated H3 (1–25) peptide, balanced conditions, mean ± standard deviation
  IC50: 80 ± 16 nM
[2]
  Methyltransferase selectivity (in words): selective
